Source: patent US12171230B2, “Herbicidal compositions” (Bayer Aktiengesellschaft, priority 2018, dated 2024)
Several values for one entry are separate records, joined by “and”; a condition that tells them apart may be missing. Equal values may be shown once.

Experiments:
Assay type in all cases: in vivo
[1] = system: Bellis perenne; test: Post-emergence herbicidal action against Bellis perenne; conditions: 100 g of a.i./ha
Protocol: (§1) When the observed efficacies exceed the formal sum total of the values of the tests with individual applications, they also exceed the expected value according to Colby, which is calculated using the formula below and is likewise regarded as an indication of synergism (cf. S. R. Colby; in Weeds 15 (1967) p. 20 to 22): E^C=A+B−([…])
(§2) Here: • A=efficacy of the active compound (A) in % at an application rate of a g a.i./ha; • B=efficacy of the active compound (B) in % at an application rate of b g a.i./ha; • E^C=expected value of the effect of the combination (A)+(B) in % at the combined application rate a+b g a.i./ha.
Seeds or rhizome pieces of mono- and dicotyledonous weeds are placed in sandy loam in pots, covered with soil and grown in a greenhouse under good growth conditions (temperature, air humidity, water supply). Three weeks after sowing, the test plants were treated at the three-leaf stage with the compositions according to the invention. The compositions according to the invention formulated as spray powders or as emulsion concentrates were sprayed onto the green plant parts in various dosages with an application rate of 300 to 800 l/ha of water (equivalent). After the test plants have been left to stand in the greenhouse under optimal growth conditions for about 3 to 4 weeks, the action of the preparations is scored visually in comparison to untreated controls. […]

[2] = system: Brachiaria platyphylla; test: Post-emergence herbicidal action against Brachiaria platyphylla
Procedure, shortened: (§3)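 Pot-grown plants, three weeks old at the three-leaf stage, received foliar sprays of various dosages. Visual assessment relative to untreated plants followed 3 to 4 weeks later.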

[3] = system: Ipomoea hederacea; test: Post-emergence herbicidal action against Ipomoea hederacea; conditions: 100 g of a.i./ha
Protocol: as §1, §2
Seeds or rhizome pieces of mono- and dicotyledonous weeds are placed in sandy loam in pots, covered with soil and grown in a greenhouse under good growth conditions (temperature, air humidity, water supply). Three weeks after sowing, the test plants were treated at the three-leaf stage with the compositions according to the invention. The compositions according to the invention formulated as spray powders or as emulsion concentrates were sprayed onto the green plant parts in various dosages with an application rate of 300 to 800 l/ha of water (equivalent). After the test plants have been left to stand in the greenhouse under optimal growth conditions for about 3 to 4 weeks, the action of the preparations is scored visually in comparison to untreated controls. The compositions according to the invention also have good post-emergence herbicidal activity against a broad spectrum of economically important gramineous and broadleaf weeds.

[4] = system: Pharbitis purpurea; test: Post-emergence herbicidal action against Pharbitis purpurea; conditions: for Herbicidal action 21 DAT [%] against Pharbitis purpurea: post-emergence
Procedure, shortened: as §3

[5] = system: Centaurea cyano; test: Post-emergence herbicidal action against Centaurea cyano
Procedure, shortened: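 Greenhouse pot-grown plants sprayed post-emergence at the three-leaf stage, three weeks after sowing, with spray-powder or emulsion-concentrate formulations at various dosages in 300 to 800 l/ha water on green parts.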

[6] = system: Lolium rigidum (resistant biotype); test: Post-emergence herbicidal action against Lolium rigidum (resistant biotype)
[7] = system: Bromus sterilis; test: Post-emergence herbicidal action against Bromus sterilis; conditions: 1 g of a.i./ha
[8] = system: Veronica hederifolia; test: Post-emergence herbicidal action against Veronica hederifolia
[9] = system: Lolium rigidum; test: Post-emergence herbicidal action against Lolium rigidum
[10] = system: Lolium rigidum (resistant biotype); test: Post-emergence herbicidal action against Lolium rigidum (resistant biotype); remark: listed apart in the source
[11] = system: Bromus sterilis; test: Post-emergence herbicidal action against Bromus sterilis; conditions: 14 DAT; 1 g a.i./ha
[12] = system: Alopecurus myosuroides; test: Post-emergence herbicidal action against Alopecurus myosuroides
[13] = system: Lolium rigidum; test: Post-emergence herbicidal action against Lolium rigidum; remark: listed apart in the source
[14] = system: Bromus sterilis; test: Post-emergence herbicidal action against Bromus sterilis
[15] = system: Viola tricolor; test: Post-emergence herbicidal action against Viola tricolor
[16] = system: Lysimachia nummularia; test: Post-emergence herbicidal action against Lysimachia nummularia; conditions: 45 DAT; 100 g a.i./ha
[17] = system: Malva pusilia; test: Post-emergence herbicidal action against Malva pusilia; conditions: 42 DAT; 100 g a.i./ha
[18] = system: Veronica hederifolia; test: Post-emergence herbicidal action against Veronica hederifolia; conditions: 28 DAT; 1 g a.i./ha
[19] = system: Eleusine indica; test: Post-emergence herbicidal action against Eleusine indica; conditions: (Z3) post-emergence, g of a.i./ha: 270, 90, 15, 5, 5 + 270, 15 + 90
Text: (§4) The following abbreviations are used in the description and the tables that follow: • g of a.i./ha=grams of active substance (active ingredient) (=100% active compound) per hectare; • The sum total of the effects of the individual applications is reported under E^A; • expected values according to Colby are each reported under E^C.
(§5) The rating period is reported in days after application (DAT).

[20] = system: Polygonum convolvulus; test: Post-emergence herbicidal action against Polygonum convolvulus
Text: as §4, §5

Compound: C=C[C@]1(C(=O)N[C@H]2CO[C@@H](C(=O)OC)C2)CC(c2cc(F)cc(F)c2)=NO1 (relative stereo) [Compound A3, methyl rel-(2R,4R)-4-[[(5S)-3-(3,5-difluorophenyl)-5-vinyl-4H-isoxazole-5-carbonyl]amino]tetrahydrofuran-2-carboxylate]
- Herbicidal action 43 DAT [%] against Bellis perenne [1]: 0%
- Herbicidal action 21 DAT [%] against Brachiaria platyphylla ([2]; 1.7 g of a.i./ha): 20%
- Herbicidal action 21 DAT against Brachiaria platyphylla ([2]; 1.7 g of a.i./ha): 20%
- Herbicidal action 21 DAT [%] against Brachiaria platyphylla ([2]; 1.7 g of a.i./ha, post-emergence, block with (B1.14) Tembotrione): 20%
- Herbicidal action 21 DAT [%] against Brachiaria platyphylla ([2]; 1.7 g of a.i./ha, post-emergence, block with (B9.10) Saflufenacil): 20%
- Herbicidal action 21 DAT [%] against Brachiaria platyphylla ([2]; 5 g of a.i./ha): 80%
- Herbicidal action 37 DAT against Ipomoea hederacea [3]: 8%
- Herbicidal action 37 DAT [%] against Ipomoea hederacea ([3]; post-emergence): 8%
- Herbicidal action 21 DAT against Pharbitis purpurea ([4]; 5 g of a.i./ha): 80%
- Herbicidal action 21 DAT [%] against Pharbitis purpurea ([4]; 5 g of a.i./ha): 80%
- Herbicidal action 21 DAT [%] against Pharbitis purpurea ([4]; 21 DAT, 5 g of a.i./ha): 85%
- Herbicidal action 21 DAT [%] against Pharbitis purpurea ([4]; 21 DAT, 15 g of a.i./ha): 85%
- Herbicidal action 14 DAT against Centaurea cyanus ([5]; 1 g of a.i./ha): 20%
- Herbicidal action 28 DAT against Centaurea cyanus ([5]; 1 g of a.i./ha): 10% and 0%
- Herbicidal action in [%] 14 DAT against Centaurea cyanus ([5]; 1 g of a.i./ha): 30%
- Herbicidal action in [%] 28 DAT against Centaurea cyanus ([5]; 1 g of a.i./ha): 10%
- Herbicidal action 14 DAT against Centaurea cyanus ([5]; 4 g of a.i./ha): 50%
- Herbicidal action 28 DAT against Centaurea cyanus ([5]; 4 g of a.i./ha): 20%
- Herbicidal action in [%] 14 DAT against Centaurea cyanus ([5]; 4 g of a.i./ha): 50%
- Herbicidal action in [%] 28 DAT against Centaurea cyanus ([5]; 4 g of a.i./ha): 50%
- Herbicidal action against Centaurea cyanus ([5]; 14 DAT, 16 g of a.i./ha): 80%
- Herbicidal action in [%] 14 DAT against Centaurea cyanus ([5]; 16 g of a.i./ha): 70%
- Herbicidal action in [%] 28 DAT against Centaurea cyanus ([5]; 16 g of a.i./ha): 40% and 70%
- Herbicidal action in [%] 28 DAT against Centaurea cyano ([5]; 16 g of a.i./ha, post-emergence): 70%
- Herbicidal action against Centaurea cyanus ([5]; 28 DAT, 16 g of a.i./ha): 40%
- Herbicidal action 28 DAT against Centaurea cyanus ([5]; (Z61) post-emergence, g of a.i./ha: 1, 270, 90, 1 + 270, 1 + 90): 0%
- Herbicidal action against Lolium rigidum (resistant biotype) ([6]; 14 DAT, 1 g of a.i./ha): 15%
- Herbicidal action against Lolium rigidum (resistant biotype) ([6]; 14 DAT, 4 g of a.i./ha): 40%
- Herbicidal action against Lolium rigidum (resistant biotype) ([6]; 28 DAT, 1 g of a.i./ha): 0%
- Herbicidal action in [%] 14 DAT against Bromus sterilis [7]: 15% and 30%
- Herbicidal action in [%] 28 DAT against Bromus sterilis [7]: 15%
- Herbicidal action against Veronica hederifolia ([8]; 14 DAT, 1 g of a.i./ha): 30%
- Herbicidal action against Veronica hederifolia ([8]; 14 DAT, 16 g of a.i./ha): 40%
- Herbicidal action against Veronica hederifolia ([8]; 28 DAT, 16 g of a.i./ha): 50%
- Herbicidal action in [%] 14 DAT against Lolium rigidum ([9]; 1 g of a.i./ha): 35% and 40%
- Herbicidal action in [%] 28 DAT against Lolium rigidum ([9]; 1 g of a.i./ha): 15% and 10%
- Herbicidal action in [%] 14 DAT against Lolium rigidum ([9]; 4 g of a.i./ha): 85%
- Herbicidal action in [%] 28 DAT against Lolium rigidum ([9]; 4 g of a.i./ha): 50% and 70%
- Herbicidal action in [%] 14 DAT against Lolium rigidum (resistant biotype) ([10]; 1 g of a.i./ha): 15% and 30%
- Herbicidal action in [%] 28 DAT against Lolium rigidum (resistant biotype) ([10]; 1 g of a.i./ha): 0%
- Herbicidal action in [%] 14 DAT against Lolium rigidum (resistant biotype) ([10]; 4 g of a.i./ha): 40% and 60%
- Herbicidal action [11]: 30%
- Herbicidal action against Alopecurus myosuroides ([12]; 14 DAT, 1 g of a.i./ha): 15%
- Herbicidal action against Alopecurus myosuroides ([12]; 14 DAT, 4 g of a.i./ha): 90%
- Herbicidal action against Alopecurus myosuroides ([12]; 28 DAT, 1 g of a.i./ha): 15%
- Herbicidal action against Alopecurus myosuroides ([12]; 28 DAT, 4 g of a.i./ha): 50%
- Herbicidal action ([13]; 14 DAT, 1 g a.i./ha): 40%
- Herbicidal action ([13]; 28 DAT, 1 g a.i./ha): 10%
- Herbicidal action ([13]; 28 DAT, 4 g a.i./ha): 70%
- Herbicidal action against Bromus sterilis ([14]; 14 DAT, 1 g of a.i./ha): 15%
- Herbicidal action against Bromus sterilis ([14]; 14 DAT, 4 g of a.i./ha): 85%
- Herbicidal action against Bromus sterilis ([14]; 28 DAT, 1 g of a.i./ha): 15%
- Herbicidal action against Viola tricolor ([15]; 14 DAT, 1 g of a.i./ha): 50%
- Herbicidal action against Viola tricolor ([15]; 14 DAT, 16 g of a.i./ha): 85%
- Herbicidal action against Viola tricolor ([15]; 28 DAT, 1 g of a.i./ha): 15%
- Herbicidal action against Viola tricolor ([15]; 28 DAT, 16 g of a.i./ha): 20%
- Herbicidal action [16]: 18%
- Herbicidal action [17]: 50%
- Herbicidal action [18]: 30%

Compound: O=C(Nc1ccc(F)cc1F)c1cccnc1Oc1cccc(C(F)(F)F)c1 [(B2.18) Diflufenican]
- Herbicidal action 21 DAT against Eleusine indica ([19]; 90 g of a.i./ha): 20%
- Herbicidal action 21 DAT against Eleusine indica ([19]; 270 g of a.i./ha): 30%
- Herbicidal action 21 DAT against Polygonum convolvulus ([20]; g of a.i./ha: 90, 30, 45, 45 + 90, 45 + 30, 30 g of a.i./ha): 10%
- Herbicidal action 21 DAT against Polygonum convolvulus ([20]; g of a.i./ha: 90, 30, 45, 45 + 90, 45 + 30, 90 g of a.i./ha): 20%
